In patent US20240376099A1, “COMPOUNDS AND COMPOSITIONS AS INHIBITORS OF ENDOSOMAL TOLL-LIKE RECEPTORS” (Novartis AG, priority 2016, published 2024) one finds IC50 data, which are given here for seven molecules.

This experiment deals with T1, TLR9 (Homo sapiens, UniProt Q9NR96).
T1 construct: Fresh blood was collected from normal human donors; endogenous in cells; host or cells: human PBMCs from fresh donor blood
T1 sequence (Q9NR96 26-1032): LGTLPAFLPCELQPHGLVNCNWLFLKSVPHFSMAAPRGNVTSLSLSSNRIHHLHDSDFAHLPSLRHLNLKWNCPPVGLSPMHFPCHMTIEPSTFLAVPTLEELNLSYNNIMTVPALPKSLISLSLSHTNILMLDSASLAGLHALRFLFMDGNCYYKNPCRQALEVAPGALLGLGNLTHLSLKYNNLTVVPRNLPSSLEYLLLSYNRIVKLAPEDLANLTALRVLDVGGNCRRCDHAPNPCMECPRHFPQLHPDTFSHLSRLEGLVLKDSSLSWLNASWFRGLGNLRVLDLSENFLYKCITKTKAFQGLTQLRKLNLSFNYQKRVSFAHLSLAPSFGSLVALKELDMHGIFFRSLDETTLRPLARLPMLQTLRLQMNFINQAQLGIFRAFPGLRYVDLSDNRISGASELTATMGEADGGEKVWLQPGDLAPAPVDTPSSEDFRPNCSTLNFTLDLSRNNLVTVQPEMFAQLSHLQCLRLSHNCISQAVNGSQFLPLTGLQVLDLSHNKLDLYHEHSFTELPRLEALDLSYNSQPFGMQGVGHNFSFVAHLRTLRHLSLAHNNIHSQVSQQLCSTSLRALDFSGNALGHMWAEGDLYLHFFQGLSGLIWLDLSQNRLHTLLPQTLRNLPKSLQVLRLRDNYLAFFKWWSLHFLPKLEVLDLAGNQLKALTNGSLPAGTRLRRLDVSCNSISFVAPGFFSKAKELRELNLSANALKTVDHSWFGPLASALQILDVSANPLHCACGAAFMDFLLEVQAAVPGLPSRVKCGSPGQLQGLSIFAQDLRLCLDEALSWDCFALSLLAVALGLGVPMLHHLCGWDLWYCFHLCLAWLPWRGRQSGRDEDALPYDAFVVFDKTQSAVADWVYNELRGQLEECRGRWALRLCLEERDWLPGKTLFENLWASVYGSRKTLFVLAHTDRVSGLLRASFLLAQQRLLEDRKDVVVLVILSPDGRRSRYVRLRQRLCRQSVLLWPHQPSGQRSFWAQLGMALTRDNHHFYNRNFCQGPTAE
The experiment can be described thus: huPBMC TLR9 Antagonist IFNα Assay. Format: cell-based. Conditions: human PBMCs stimulated with ODN2216 0.3 μM, 14-16 hrs; IFNα2b AlphaLISA read-out. The essentials: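 Human PBMCs from fresh donor blood (150,000 cells/well) stimulated 14–16 h at 37 °C with DOTAP-complexed ssRNA40 (final 1 μg/ml for TLR8, 10 μg/mL for TLR7) or ODN2216 (final 0.3 μM, TLR9), 0.25% DMSO, ten-point 1/3 compound dilutions. Supernatant IL-6 read by HTRF (TLR8); IFNα by IFNα2b AlphaLISA (TLR7/TLR9).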
Background: Alpha assays give light when donor and acceptor beads are brought close together.
For the molecule `Cc1cc(N2CCc3c(c(C)nn3CC34CCC(NC(C)C)(CC3)CC4)C2)c2cnn(C)c2n1` [compound 55, 4-((5-(1,6-dimethyl-1H-pyrazolo[3,4-b]pyridin-4-yl)-3-methyl-4,5,6,7-tetrahydro-1H-pyrazolo[4,3-c]pyridin-1-yl)methyl)-N-isopropylbicyclo[2.2.]octan-1-amine], the IC50 amounted to 1050 nM.
Turning to `Cc1cc(N2CCc3c(c(C)nn3CC34CCC(N5CCCC5)(CC3)CC4)C2)c2cnn(C)c2n1` [Compound No. 58, 5-(1,6-dimethyl-1H-pyrazolo[3,4-b]pyridin-4-yl)-3-methyl-1-((4-(pyrrolidin-1-yl)bicyclo[2.2.2]octan-1-yl)methyl)-4,5,6,7-tetrahydro-1H-pyrazolo[4,3-c]pyridine], the IC50 is 639 nM.
In the case of `CCNC12CCC(Cn3nc(C)c4c3CCN(c3cc(C)nc5c3cnn5C)C4)(CC1)CC2` [compound 57, 4-((5-(1,6-dimethyl-1H-pyrazolo[3,4-b]pyridin-4-yl)-3-methyl-4,5,6,7-tetrahydro-1H-pyrazolo[4,3-c]pyridin-1-yl)methyl)-N-ethylbicyclo[2.2.]octan-1-amine] it was 497 nM.
As for `Cc1cc(N2CCc3c(c(C)nn3CC34CCC(N5C[C@@H](O)[C@@H](O)C5)(CC3)CC4)C2)c2cnn(C)c2n1` [compound 74, (3S,4R)-1-(4-((5-(1,6-dimethyl-1H-pyrazolo[3,4-b]pyridin-4-yl)-3-methyl-4,5,6,7-tetrahydro-1H-pyrazolo[4,3-c]pyridin-1-yl)methyl)bicyclo[2.2.2]octan-1-yl)pyrrolidine-3,4-diol], the figure is 1540 nM.
In the case of `Cc1cc(N2CCc3c(c(C)nn3CC34CCC(N)(CC3)CC4)C2)c2cnn(C)c2n1` [Compound No. 1, 4-((5-(1,6-dimethyl-1H-pyrazolo[3,4-b]pyridin-4-yl)-3-methyl-4,5,6,7-tetrahydro-1H-pyrazolo[4,3-c]pyridin-1-yl)methyl)bicyclo[2.2.2]octan-1-amine] it was 1520 nM.
On to `Cc1cc(N2CCc3c(c(C)nn3CC34CCC(NC5CCC5)(CC3)CC4)C2)c2cnn(C)c2n1` [compound 54, N-cyclobutyl-4-((5-(1,6-dimethyl-1H-pyrazolo[3,4-b]pyridin-4-yl)-3-methyl-4,5,6,7-tetrahydro-1H-pyrazolo[4,3-c]pyridin-1-yl)methyl)bicyclo[2.2.2]octan-1-amine], for which the IC50 was 489 nM.
In the case of `COCCNC12CCC(Cn3nc(C)c4c3CCN(c3cc(C)nc5c3cnn5C)C4)(CC1)CC2` [Compound No. 69, 4-((5-(1,6-dimethyl-1H-pyrazolo[3,4-b]pyridin-4-yl)-3-methyl-4,5,6,7-tetrahydro-1H-pyrazolo[4,3-c]pyridin-1-yl)methyl)-N-(2-methoxyethyl)bicyclo[2.2.2]octan-1-amine] it was 442 nM.

As a reminder, the IC50 is the concentration that gives 50% inhibition.
